# Columns and labels:
# Type in all cases: in vivo
# canola (Brassica rapa) = experiment: Test C pre-/postemergence plant response
# How it was run: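 Test chemicals in a non-phytotoxic solvent with surfactant were applied preemergence, and some were also applied postemergence to plants 2–18 cm tall (1- to 4-leaf stage). Visual ratings against controls were made after 15–25 days in a controlled environment, on a 0–100 scale where 100 means complete control.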
# [1] = test system: goosegrass (Eleusine indica); experiment: Test E pre-/postemergence plant response; details: scale 0 to 100
# How it was run: (§1)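 Pre- and postemergence greenhouse test; compounds formulated in non-phytotoxic solvent with surfactant, postemergence plants 2–18 cm (1- to 4-leaf stage). Visual rating against untreated controls after 14 to 21 days, on a 0 (no effect) to 100 (complete control) scale.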
# [2] = test system: southern (S.) sandbur (Cenchrus echinatus); experiment: Test E pre-/postemergence plant response; details: scale 0 to 100
# How it was run: as §1
# [3] = test system: dallisgrass (Paspalum dilatatum); experiment: Test E pre-/postemergence plant response; details: scale 0 to 100
# How it was run: as §1
# [4] = test system: barnyardgrass (Echinochloa crus-galli); experiment: Test E pre-/postemergence plant response
# How it was run: as §1
# [5] = test system: black mustard (Brassica nigra); experiment: Test E pre-/postemergence plant response; details: scale 0 to 100
# How it was run: as §1
# [6] = test system: common groundsel (Senecio vulgaris); experiment: Test E pre-/postemergence plant response; details: scale 0 to 100
# How it was run: as §1
# [7] = test system: guineagrass (Panicum maximum); experiment: Test E pre-/postemergence plant response; details: scale 0 to 100
# How it was run: as §1
# [8] = test system: common purslane (Portulaca oleracea); experiment: Test E pre-/postemergence plant response; details: scale 0 to 100
# How it was run: as §1
structure (smiles),measurement,setting,value
"CCc1cc(-c2ccc(C(F)(F)F)cc2)nn1-c1c(O)cnn(C)c1=O [Compound 11, 4-[5-ethyl-3-[4-(trifluoromethyl)phenyl]-1H-pyrazol-1-yl]-5-hydroxy-2-methyl-3(2H)-pyridazinone]","Plant response rating, Canola","canola (Brassica rapa); Postemergence, 8 g ai/ha, scale 0 to 100, 0 no effect, 100 complete control",0
same,"Plant response rating, Canola","canola (Brassica rapa); Postemergence, 16 g ai/ha, scale 0 to 100, 0 no effect, 100 complete control",0
same,"Plant response rating, Canola","canola (Brassica rapa); Postemergence, 31 g ai/ha, scale 0 to 100, 0 no effect, 100 complete control",0
same,"Plant response rating, Canola","canola (Brassica rapa); Postemergence, 62 g ai/ha, scale 0 to 100, 0 no effect, 100 complete control",0
same,"Plant response rating, Canola","canola (Brassica rapa); Preemergence, 8 g ai/ha, scale 0 to 100 (0 no effect, 100 complete control)",0
same,"Plant response rating, Canola","canola (Brassica rapa); Preemergence, 16 g ai/ha, scale 0 to 100 (0 no effect, 100 complete control)",0
same,"Plant response rating, Canola","canola (Brassica rapa); Preemergence, 31 g ai/ha, scale 0 to 100 (0 no effect, 100 complete control)",0
same,"Plant response rating, Canola","canola (Brassica rapa); Preemergence, 62 g ai/ha, scale 0 to 100, 0 no effect, 100 complete control",0
same,"Plant response rating, Goosegrass","[1]; 4 g ai/ha, Postemergence",10
same,"Plant response rating, Goosegrass","[1]; 8 g ai/ha, Preemergence",25
same,"Plant response rating, Goosegrass","[1]; 16 g ai/ha, Preemergence",50
same,"Plant response rating, Goosegrass","[1]; 31 g ai/ha, Preemergence",90
same,"Plant response rating, Goosegrass","[1]; Postemergence, 8 g ai/ha",35
same,"Plant response rating, Goosegrass","[1]; Postemergence, 16 g ai/ha",80
same,"Plant response rating, Goosegrass","[1]; Postemergence, 31 g ai/ha",85
same,"Plant response rating, Goosegrass","[1]; Preemergence, 4 g ai/ha",25
same,"Plant response rating, Sandbur, S.","[2]; 4 g ai/ha, Postemergence",90
same,"Plant response rating, Sandbur, S.","[2]; 16 g ai/ha, Preemergence",90
same,"Plant response rating, Sandbur, S.","[2]; 31 g ai/ha, Preemergence",95
same,"Plant response rating, Sandbur, S.","[2]; Postemergence, 8 g ai/ha",95
same,"Plant response rating, Sandbur, S.","[2]; Postemergence, 16 g ai/ha",100
same,"Plant response rating, Sandbur, S.","[2]; Postemergence, 31 g ai/ha",100
same,"Plant response rating, Sandbur, S.","[2]; Preemergence, 4 g ai/ha",0
same,"Plant response rating, Dallisgrass","[3]; 4 g ai/ha, Postemergence",60
same,"Plant response rating, Dallisgrass","[3]; 8 g ai/ha, Preemergence",20
same,"Plant response rating, Dallisgrass","[3]; 16 g ai/ha, Preemergence",35
same,"Plant response rating, Dallisgrass","[3]; 31 g ai/ha, Preemergence",85
same,"Plant response rating, Dallisgrass","[3]; Postemergence, 8 g ai/ha",75
same,"Plant response rating, Dallisgrass","[3]; Postemergence, 16 g ai/ha",90
same,"Plant response rating, Dallisgrass","[3]; Postemergence, 31 g ai/ha",90
same,"Plant response rating, Dallisgrass","[3]; Preemergence, 4 g ai/ha",10
same,"Plant response rating, Barnyardgrass","[4]; 4 g ai/ha, Postemergence, scale 0 to 100",90
same,"Plant response rating, Barnyardgrass","[4]; 8 g ai/ha, Preemergence, scale 0 to 100",75
same,"Plant response rating, Barnyardgrass","[4]; 16 g ai/ha, Preemergence, scale 0 to 100",90
same,"Plant response rating, Barnyardgrass","[4]; 31 g ai/ha, Preemergence, scale 0 to 100",98
same,"Plant response rating, Barnyardgrass","[4]; Postemergence, 8 g ai/ha, scale 0 to 100",100
same,"Plant response rating, Barnyardgrass","[4]; Postemergence, 16 g ai/ha, scale 0 to 100",100
same,"Plant response rating, Barnyardgrass","[4]; Postemergence, 31 g ai/ha, scale 0 to 100",100
same,"Plant response rating, Barnyardgrass","[4]; Preemergence, 4 g ai/ha, scale 0 to 100, 0 no effect, 100 complete control",0
same,"Plant response rating, Mustard, Black","[5]; 4 g ai/ha, Postemergence",0
same,"Plant response rating, Mustard, Black","[5]; 8 g ai/ha, Preemergence",0
same,"Plant response rating, Mustard, Black","[5]; 16 g ai/ha, Preemergence",0
same,"Plant response rating, Mustard, Black","[5]; 31 g ai/ha, Preemergence",0
same,"Plant response rating, Mustard, Black","[5]; Postemergence, 8 g ai/ha",0
same,"Plant response rating, Mustard, Black","[5]; Postemergence, 16 g ai/ha",0
same,"Plant response rating, Mustard, Black","[5]; Postemergence, 31 g ai/ha",0
same,"Plant response rating, Mustard, Black","[5]; Preemergence, 4 g ai/ha",0
same,"Plant response rating, Groundsel","[6]; 4 g ai/ha, Postemergence",0
same,"Plant response rating, Groundsel","[6]; 16 g ai/ha, Preemergence",0
same,"Plant response rating, Groundsel","[6]; 31 g ai/ha, Preemergence",0
same,"Plant response rating, Groundsel","[6]; Postemergence, 8 g ai/ha",0
same,"Plant response rating, Groundsel","[6]; Postemergence, 16 g ai/ha",0
same,"Plant response rating, Groundsel","[6]; Postemergence, 31 g ai/ha",0
same,"Plant response rating, Groundsel","[6]; Preemergence, 4 g ai/ha",0
same,"Plant response rating, Guineagrass","[7]; 4 g ai/ha, Postemergence",90
same,"Plant response rating, Guineagrass","[7]; 16 g ai/ha, Preemergence",98
same,"Plant response rating, Guineagrass","[7]; 31 g ai/ha, Preemergence",98
same,"Plant response rating, Guineagrass","[7]; Postemergence, 8 g ai/ha",95
same,"Plant response rating, Guineagrass","[7]; Postemergence, 16 g ai/ha",98
same,"Plant response rating, Guineagrass","[7]; Postemergence, 31 g ai/ha",98
same,"Plant response rating, Guineagrass","[7]; Preemergence, 4 g ai/ha",0
same,"Plant response rating, Purslane","[8]; 4 g ai/ha, Postemergence",0
same,"Plant response rating, Purslane","[8]; 16 g ai/ha, Preemergence",0
same,"Plant response rating, Purslane","[8]; 31 g ai/ha, Preemergence",0
same,"Plant response rating, Purslane","[8]; Postemergence, 8 g ai/ha",0
same,"Plant response rating, Purslane","[8]; Postemergence, 16 g ai/ha",0
same,"Plant response rating, Purslane","[8]; Postemergence, 31 g ai/ha",0
same,"Plant response rating, Purslane","[8]; Preemergence, 4 g ai/ha",0
